Patent US7851467B2, “Carbamate compounds as 5-HT4 receptor agonists” (Theravance, Inc., priority 2005, dated 2010)

Biological target: T1, human 5-HT4(c) receptor (Homo sapiens, UniProt Q13639)
T1 construct: expressed in transfected cells; host or cells: HEK-293
Test: Radioligand binding assay on 5-HT4(c) human receptors ([3H]-GR113808 displacement)
Conditions: HEK-293 membranes, [3H]-GR113808 at 0.15 nM, read-out: pKi value (converted)
Description: Assay 1: Radioligand Binding Assay on 5-HT4(C) Human Receptors a. Membrane Preparation 5-HT4(c)
HEK-293 (human embryonic kidney) cells stably-transfected with human 5-HT4(C) receptor cDNA (Bmax=˜6.0 pmol/mg protein, as determined using [^3H]-GR113808 membrane radioligand binding assay) were grown in T-225 flasks in Dulbecco's Modified Eagles Medium (DMEM) containing 4,500 mg/L D-glucose and pyridoxine hydrochloride (GIBCO-Invitrogen Corp., Carlsbad Calif.: Cat #11965) supplemented with 10% fetal bovine serum (FBS) (GIBCO-Invitrogen Corp.: Cat #10437), 2 mM L-glutamine and (100 units) penicillin-(100 μg) streptomycin/ml (GIBCO-Invitrogen Corp.: Cat #15140) in a 5% CO2, humidified incubator at 37° C. […]
For the membrane preparation, cell pellets were resuspended in ice-cold 50 mM 4-(2-hydroxyethyl)-1-piperazineethanesulphonic acid (HEPES), pH 7.4 (membrane preparation buffer) (40 mL/total cell yield from 30-40 T225 flasks) and homogenized using a polytron disrupter (setting 19, 2×10 s) on ice. […] Protein concentration of the membrane suspension was determined by the method of Bradford (Bradford, 1976). […]
Test compounds were received as 10 mM stock solutions in DMSO and diluted to 400 μM into 50 mM HEPES pH 7.4 at 25° C., containing 0.1% BSA, and serial dilutions (1:5) then made in the same buffer. Non-specific binding was determined in the presence of 1 μM unlabeled GR113808. […]

T1 sequence (Q13639 1-380 isoform Q13639-4): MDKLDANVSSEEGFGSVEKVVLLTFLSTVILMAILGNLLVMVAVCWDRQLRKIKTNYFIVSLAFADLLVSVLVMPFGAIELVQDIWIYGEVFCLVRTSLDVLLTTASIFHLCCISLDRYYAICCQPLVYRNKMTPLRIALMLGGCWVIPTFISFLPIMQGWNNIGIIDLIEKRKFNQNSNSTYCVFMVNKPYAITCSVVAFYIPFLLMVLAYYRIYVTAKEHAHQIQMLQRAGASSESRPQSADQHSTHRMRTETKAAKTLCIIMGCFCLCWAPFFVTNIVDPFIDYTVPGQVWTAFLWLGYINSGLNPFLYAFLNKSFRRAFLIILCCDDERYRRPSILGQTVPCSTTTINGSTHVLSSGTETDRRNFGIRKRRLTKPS

CC(C)n1c(=O)n(C(=O)N[C@H]2C[C@H]3CC[C@@H](C2)N3CCCOC(=O)N2CCN(C(=O)C3CCCO3)CC2)c2ccccc21 (stereo partly drawn) [Example 1, 4-(tetrahydrofuran-2-carbonyl)piperazine-1-carboxylic acid 3-{(1S,3R,5R)-3-[(3-isopropyl-2-oxo-2,3-dihydrobenzoimidazole-1-carbonyl)amino]-8-aza-bicyclo[3.2.1]oct-8-yl}propyl ester]
Ki: 12.6 nM
